The values that follow come from ChEMBL document CHEMBL3046584, “Synthesis, biological activity and docking study of some new isatin Schiff base derivatives” (2012).

SMILES strings stand for the structures. A value given as a limit tells only on which side of the number the result lay.

Common to all, as to format: functional
The test system of assay [1] is HeLa. The experiment in a line: Cytotoxicity against Homo sapiens (human) HeLa cells assessed as cell viability after […] by MTT assay.
The nature of assay [2]: Cytotoxicity against Homo sapiens (human) LS180 cells assessed as cell viability after 72 hr by MTT assay. The following applies: LS180, 72 h. In general terms: Tetrazolium assays rely on reduction of a dye to a coloured formazan, in cell work by metabolically active cells.
Assay [3] relates to Raji. The experiment in a line: Cytotoxicity against Homo sapiens (human) Raji cells assessed as cell viability after 72 hr by MTT assay.

By IC30 is commonly meant the concentration at which the effect reaches the 30% level.

As to `O=C1Nc2ccccc2/C1=N/c1nc(Cl)cs1`, the results for the IC15 in assay [1], in assay [2] and in assay [3] were 3.2 µM, greater than 100 µM and 57.3 µM, respectively. Further, the 30% effect concentration (IC30) in assay [1] is 35.9 µM; in assay [2] it was greater than 100 µM; in assay [3], greater than 100 µM.
With `O=C1Nc2ccccc2/C1=N/c1ccc(Cl)cn1`, the IC15 in assay [1] is 21.6 µM; in assay [2], greater than 100 µM; in assay [3], greater than 100 µM. Further, the figures for the IC30 in assay [1], in assay [2] and in assay [3] were 65.1 µM, greater than 100 µM and greater than 100 µM, respectively.
`O=C1Nc2ccccc2/C1=N/Nc1ccc([N+](=O)[O-])cc1`: the results for the IC15 in assay [1], in assay [2] and in assay [3] were 3 µM, 5.2 µM and 17 µM, respectively. For the same compound, the IC30 is 12.2 µM in assay [1], 21.8 µM in assay [2] and greater than 100 µM in assay [3].
Take `O=C1Nc2ccccc2/C1=N\c1ccc(Cl)cc1`: the IC15 was 15.4 µM in assay [1], greater than 100 µM in assay [2] and 35.4 µM in assay [3]. The IC30 in assay [1] is 80.2 µM; in assay [2] it was greater than 100 µM; in assay [3], 88.1 µM.
For the compound `Cc1nc(Cl)cc(/N=C2\C(=O)Nc3ccccc32)n1`, the IC15 in assay [1] is 17.4 µM; in assay [2], greater than 100 µM; in assay [3] it was greater than 100 µM. Also, the IC30 in assay [1], in assay [2] and in assay [3] was greater than 100 µM each time.
Take `Cc1conc1/N=C1\C(=O)Nc2ccccc21`: the IC15 in assay [1] is 49.6 µM; in assay [2], greater than 100 µM; in assay [3], 30.1 µM. Besides, the IC30 in assay [1], in assay [2] and in assay [3] was greater than 100 µM throughout.
For `O=C1Nc2ccccc2/C1=N/c1nc2ccccc2[nH]1`, the IC15 in assay [1] was 43.2 µM; in assay [2], greater than 100 µM; in assay [3] it was 15.6 µM. The 30% effect concentration (IC30) in assay [1], in assay [2] and in assay [3] was greater than 100 µM throughout.
With `Cc1ccccc1N=C1C(=O)Nc2ccccc21`, the IC15 is 12.3 µM in assay [1], greater than 100 µM in assay [2] and 64.8 µM in assay [3]. Further, the IC30 was 52.6 µM in assay [1], greater than 100 µM in assay [2] and greater than 100 µM in assay [3].
For `O=C1Nc2ccccc2/C1=N/c1cccc2ccccc12`, the IC15 in assay [1] is 15.8 µM; in assay [2], 20.8 µM; in assay [3], 48.8 µM. Besides, the IC30 in assay [1] was 55.9 µM; in assay [2], greater than 100 µM; in assay [3] it was greater than 100 µM.
